“Also recorded” adds a separate entry of the source. Like-named read-outs stand apart in the source and are kept apart here.
Legend:
[1] = test system: LDH activity in B. microti; conditions: cited from earlier work; for IC50: previous work
rBmLDH [2] = biological target: T1, rBmLDH (Babesia microti, UniProt I7J7V6); type: binding; conditions: for Kd: read-out: equilibrium dissociation constant (Kd)
rBmLDH [3] = biological target: T1, rBmLDH; type: biochemical; conditions: pH 9.5; read-out: BmLDH IC50
B. microti = assay: In vitro growth inhibition of B. microti; type: cell-based; conditions: Babesia microti, Erythrocyte, 72 h, read-out: B. microti IC50 (growth inhibition)
Method: Once parasitemia reached 60%, blood was collected from the tails of the mice, and the initial percent parasitized erythrocytes (PPE) was diluted to approximately 0.8% using healthy mouse erythrocytes. […] Cultures were incubated for 72 h at 37 ℃ in a gas mixture of 2% O2, 5% CO2, and 93% N2 [23, 24]. After incubation, blood smears were prepared, stained with Giemsa, and the parasitemia rate was calculated. All experiments were performed in triplicate.

in vitro = type: cell-based; conditions: African green monkey
Method: The mycoplasma-free Vero cell line (ATCC-CCL-81, immortalized cells) was cryopreserved in liquid nitrogen with DMSO at the National Key Laboratory of Agricultural Microbiology, Huazhong Agricultural University, China. The cytotoxicity of compounds TA and TB was assessed in Vero cells using the CCK-8 assay (Vazyme). Briefly, Vero cells (100 µL, 10,000 cells/well) were cultured in Dulbecco’s modified Eagle medium (DMEM) supplemented with 10% fetal bovine serum (FBS) and 100 U/mL penicillin–streptomycin at 37 ℃ with 5% CO2 for 24 h. The cells were then treated with varying concentrations of TA (2000, 1000, 500, 250, and 125 μM) or TB (800, 400, 200, 100, and 50 μM) for 72 h. After the treatment period, the medium containing TA and TB was replaced with fresh medium. Subsequently, 10 µL of CCK-8 solution was added to each well, and the plate was incubated for an additional 3 h. Absorbance was measured at 450 nm using a multifunctional enzyme marker (Envision, PE, USA). Stock solutions of TA and TB were prepared at a concentration of 100 mM in absolute ethanol. Doxorubicin hydrochloride at 40 µM served as the positive control, while 2% absolute ethanol served as the negative control. The concentration required to achieve 50% cytotoxicity (CC50) values were calculated using GraphPad Prism 8, and all cytotoxicity assays were performed in triplicate.

[4] = test system: Plasmodium falciparum LDH; parameters: method as in PMID 9748363; conditions: cited from earlier work
human LDH-M (LDH-A4) = biological target: human LDH-M (LDH-A4); parameters: method as in PMID 9748363; conditions: cited from earlier work

T1 sequence (I7J7V6 1-332): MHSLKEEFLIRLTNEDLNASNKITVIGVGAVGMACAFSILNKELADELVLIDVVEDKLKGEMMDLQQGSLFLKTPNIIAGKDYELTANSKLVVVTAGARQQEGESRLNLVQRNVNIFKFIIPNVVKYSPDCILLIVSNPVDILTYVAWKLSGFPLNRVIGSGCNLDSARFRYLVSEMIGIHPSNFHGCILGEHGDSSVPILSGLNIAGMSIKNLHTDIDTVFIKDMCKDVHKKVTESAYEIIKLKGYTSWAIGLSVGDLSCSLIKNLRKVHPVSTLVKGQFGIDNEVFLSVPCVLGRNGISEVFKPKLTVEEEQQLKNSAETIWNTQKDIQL

| Compound | IC50 [1] [µM] | binding capacity/affinity to rBmLDH compared with lead compound DHNA (rBmLDH [2]) | Kd (rBmLDH [2]) [µM] | IC50 (rBmLDH [3]) [µM] | CC50 at 72 h (in vitro) [µM] | further results |
| --- | --- | --- | --- | --- | --- | --- |
| Cc1cc2c(C(C)C)c(O)c(O)c(C=O)c2c(O)c1-c1c(C)cc2c(C(C)C)c(O)c(O)c(C=O)c2c1O [Gossypol] | – | – | – | – | – | concentration that significantly inhibits LDH activity in B. microti ([1]; in vitro): 592 nM |
| O=C(O)c1cc2cc(Br)ccc2c(Br)c1O [DBHCA, 1,6-dibromo-2-hydroxynapthalene 3-carboxylic acid] | 52.7 | – | – | – | – | – |
| O=C(O)c1cccc(-c2ccc3ccc(O)cc3c2)c1 [TB] | – | over a threefold increase in binding capacity; also recorded: more than three times higher affinity | 13.2 | 23.8 | 434 | IC50 (B. microti; in Mus musculus): 112 µM |
| CCCc1c(O)c(O)c(C(=O)O)c2cc(Cc3ccccc3)c(C)cc12 [Compound 11F] | – | – | – | – | – | Ki [4]: 0.3 µM; Ki (human LDH-M (LDH-A4)): 0.05 µM |
| O=C(O)c1cc2cccc(O)c2cc1O [DHNA, 3,5-dihydroxy-2-naphthoxylic acid] | 30 | – | – | – | – | – |
| O=C(O)c1ccccc1Cc1ccc2ccc(O)cc2c1 [TA] | – | over a threefold increase in binding capacity; also recorded: more than three times higher affinity | 11.3 | 71.6 | 1030 | IC50 (B. microti; in vitro culture in mouse erythrocytes, 37 ℃): 122 µM |

Reference: PMC11847361, “Design and screening of novel molecular compounds targeting lactate dehydrogenase of Babesia microti” (Parasites & Vectors, 2025)
